These results are taken from patent US8754192B2, “Compositions comprising homogeneously glycosylated erythropoietin” (Sloan-Kettering Institute for Cancer Research, priority 2006, dated 2014).

Values after ≈ are worked out from the molar mass of the structure shown.

Data set [1] is described as follows: Solubility of the peptide product in MeOH. The format is physicochemical. To be noted: fully protected peptide made with pseudoproline/Dmb dipeptides, 'as high as', read-out: solubility (concentration easily achieved). An excerpt: To improve the peptide synthesis yields and purities, as well as the solubilities of crude products, we attempted various strategies, including the replacement of the synthesized chlorotrityl resin with commercially available NovaSyn® TGT resin (preloaded with Fmoc-amino acids), the use of Ser/Thr-derived oxazolidines (pseudoprolines) and Dmb (2,4-dimethoxybenzyl)dipeptides, 1, 2, 3 and 4 shown below. While 1, 2 and 4 are available in large scale, 3 had to be prepared from a multistep synthesis. These dipeptides could be incorporated into the growing peptide chain in the same manner as normal amino acids activated by HATU. The synthesis outlined below exploited all the beneficial properties of these strategies and produced […] as determined by LC-MS.

A further data set deals with T1, EPO-R (Homo sapiens, UniProt P19235).
T1 sequence (P19235 25-508): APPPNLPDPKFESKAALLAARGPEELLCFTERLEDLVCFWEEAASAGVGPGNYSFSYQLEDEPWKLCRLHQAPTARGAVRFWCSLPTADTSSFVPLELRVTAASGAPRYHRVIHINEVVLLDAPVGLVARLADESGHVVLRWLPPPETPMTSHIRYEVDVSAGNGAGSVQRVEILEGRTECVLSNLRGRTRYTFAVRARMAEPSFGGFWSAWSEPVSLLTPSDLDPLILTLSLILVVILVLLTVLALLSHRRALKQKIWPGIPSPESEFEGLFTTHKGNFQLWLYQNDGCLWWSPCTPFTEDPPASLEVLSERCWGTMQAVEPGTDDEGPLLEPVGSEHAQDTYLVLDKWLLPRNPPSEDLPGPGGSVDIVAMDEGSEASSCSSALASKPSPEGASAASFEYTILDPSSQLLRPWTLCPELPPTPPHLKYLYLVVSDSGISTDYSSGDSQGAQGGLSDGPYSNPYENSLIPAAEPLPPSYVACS
To be noted: in vitro; compared to rHuEPO; cited from earlier work.

The conditions of data set [2]: compared to rHuEPO; cited from earlier work.

For the molecule `COc1ccc(CN(C(=O)[C@H](CC(=O)OCc2ccc(NC(CC(C)C)=C3C(=O)CC(C)(C)CC3=O)cc2)NC(=O)[C@@H](NC(=O)[C@H](Cc2cn(C(c3ccccc3)(c3ccccc3)c3ccccc3)cn2)NC(=O)[C@H](CC(C)C)NC(=O)[C@H](CCC(=O)NC(c2ccccc2)(c2ccccc2)c2ccccc2)NC(=O)[C@H](CC(C)C)NC(=O)[C@@H]2CCCN2C(=O)[C@H](CCC(=O)OCc2ccc(NC(CC(C)C)=C3C(=O)CC(C)(C)CC3=O)cc2)NC(=O)[C@H](Cc2cn(C(=O)OC(C)(C)C)c3ccccc23)NC(=O)[C@@H]2CCCN2C(=O)[C@H](CCC(=O)NC(c2ccccc2)(c2ccccc2)c2ccccc2)NC(=O)[C@H](COC(C)(C)C)NC(=O)[C@@H]2COC(C)(C)N2C(=O)[C@H](CC(=O)OC(C)(C)C)NC(=O)[C@@H](NC(=O)[C@H](CC(C)C)NC(=O)[C@H](CC(C)C)NC(=O)[C@H](C)NC(=O)[C@@H](N)CCC(=O)NC(c2ccccc2)(c2ccccc2)c2ccccc2)C(C)C)C(C)C)[C@@H](CCCCNC(CC(C)C)=C2C(=O)CC(C)(C)CC2=O)C(=O)N[C@@H](C)C(=O)N[C@H](C(=O)N2[C@H](C(=O)NCC(=O)N[C@@H](CC(C)C)C(=O)N[C@@H](CCCNC(=N)NS(=O)(=O)c3c(C)c(C)c4c(c3C)CC(C)(C)O4)C(=O)N[C@@H](COC(C)(C)C)C(=O)N[C@@H](CC(C)C)C(=O)N3[C@H](C(=O)N[C@H](C(=O)N[C@@H](CC(C)C)C(=O)N[C@@H](CC(C)C)C(=O)N[C@@H](CCCNC(=N)NS(=O)(=O)c4c(C)c(C)c5c(c4C)CC(C)(C)O5)C(=O)N[C@@H](C)C(=O)N[C@@H](CC(C)C)C(=O)NCC(=O)O)[C@@H](C)OC(C)(C)C)[C@@H](C)OC3(C)C)COC2(C)C)C(C)C)c(OC)c1` [EPO(78-113)], in data set [1], the solubility amounted to 4.6 mM (≈ 31.3 mg/mL). As to darbepoetin alfa, on EPO-R, the “affinity for the EPO-R” value is listed as “diminished by approximately one-fourth”. The activity in vivo result in data set [2] was “remained the same”.
